Test results taken from US12714675B2, “Solid dosage form production” (UNIVERSITY OF LANCASHIRE, priority 2016, dated 2026).

Assay: optimization of highly concentrated dipyridamole solution for liquid capsule feed (solubility in solvent systems)
Type: physicochemical
Details: drug solution in PEG 400
Description: A model drug, dipyridamole, was chosen to test the suitability of this system to provide immediate and extended drug release. Its fluoresce colour and ease of detection allows focusing on the development process. It was decided that the drug solution PEG 400 (10 mg/ml) is the maximum concentration that can be readily prepared.

SMILES: OCCN(CCO)c1nc(N2CCCCC2)c2nc(N(CCO)CCO)nc(N3CCCCC3)c2n1 [dipyridamole]
- maximum concentration that can be readily prepared: 10 mg/mL
